Drawing on patent US8697868B2, “8-[3-amino-piperidin-1-yl]-xanthines, their preparation and their use as pharmaceutical compositions” (Boehringer Ingelheim International GmbH, priority 2004, dated 2014), this text covers IC50, toxic side effects and melting point for 15 molecules.

For one data set, the target named is DPP-IV (Homo sapiens (Human), UniProt P27487). The data set is described as follows: DPP-IV assay with Caco-2 cell extract as DPP IV source. It is filed as biochemical. To be noted: extract of human colon carcinoma cell line Caco-2 as DPP IV source; AFC substrate 100 μM; 60 minutes at ambient temperature; read-out: DPP IV inhibition IC50. The procedure:
The differentiation of the cells in order to induce the DPP-IV expression was carried out in accordance with the description by Reiher et al. in an article entitled “Increased expression of intestinal cell line Caco-2” that appeared in Proc. Natl. Acad. Sci. Vol. 90, pp. 5757-5761 (1993). The cell extract was obtained from cells solubilized in a buffer (10 mM Tris HCl, 0.15 M NaCl, 0.04 t.i.u. aprotinin, 0.5% Nonidet-P40, pH 8.0) by centrifugation at 35,000 g for 30 minutes at 4° C. (to remove cell debris).
The DPP-IV assay was carried out as follows:
50 μl of substrate solution (AFC; AFC is amido-4-trifluoromethylcoumarin), final concentration 100 μM, was placed in black microtitre plates. 20 μl of assay buffer (final concentrations 50 mM Tris HCl pH 7.8, 50 mM NaCl, 1% DMSO) was pipetted therein. The reaction was started by the addition of 30 μl of solubilized Caco-2 protein (final concentration 0.14 μg of protein per well). The test substances under investigation were typically added prediluted to 20 μl, while the volume of assay buffer was then reduced accordingly. The reaction was carried out at ambient temperature, the incubation period was 60 minutes. Then the fluorescence was measured in a Victor 1420 Multilabel Counter, with the excitation wavelength at 405 nm and the emission wavelength at 535 nm. Dummy values (corresponding to 0% activity) were obtained in mixtures with no Caco-2 protein (volume replaced by assay buffer), control values (corresponding to 100% activity) were obtained in mixtures without any added substance. The potency of the test substances in question, expressed as IC50 values, were calculated from dosage/activity curves consisting of 11 measured points in each case.

Another data set concerns rats. The data set is described as follows: Tolerability after oral administration in rats. It is filed as in vivo. The conditions noted are these: oral administration of 10 mg/kg.

DPP-IV, sequence (P27487 whole entry): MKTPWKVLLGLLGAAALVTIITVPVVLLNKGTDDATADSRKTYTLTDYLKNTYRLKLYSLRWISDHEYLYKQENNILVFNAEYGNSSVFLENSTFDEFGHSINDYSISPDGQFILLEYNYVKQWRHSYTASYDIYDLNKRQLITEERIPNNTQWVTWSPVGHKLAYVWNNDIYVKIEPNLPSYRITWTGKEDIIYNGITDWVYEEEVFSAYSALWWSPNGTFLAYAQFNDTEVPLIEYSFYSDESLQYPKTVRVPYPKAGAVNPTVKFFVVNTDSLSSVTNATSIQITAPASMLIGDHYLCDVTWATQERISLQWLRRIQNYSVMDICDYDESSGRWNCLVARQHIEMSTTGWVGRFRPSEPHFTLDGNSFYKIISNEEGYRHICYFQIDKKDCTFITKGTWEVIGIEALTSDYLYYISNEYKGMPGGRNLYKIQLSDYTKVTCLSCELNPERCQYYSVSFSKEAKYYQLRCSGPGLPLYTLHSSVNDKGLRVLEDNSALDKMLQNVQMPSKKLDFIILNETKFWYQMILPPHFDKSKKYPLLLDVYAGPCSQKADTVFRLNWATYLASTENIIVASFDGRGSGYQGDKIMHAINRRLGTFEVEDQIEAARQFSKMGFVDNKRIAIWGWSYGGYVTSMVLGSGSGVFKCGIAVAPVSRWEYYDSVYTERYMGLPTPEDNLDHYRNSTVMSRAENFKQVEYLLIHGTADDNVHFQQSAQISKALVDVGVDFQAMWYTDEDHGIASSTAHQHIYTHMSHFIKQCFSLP

Turning to `CC#CCn1c(N2CCC[C@@H](N)C2)nc2c1c(=O)n(Cc1cc(C#N)cc3ccccc13)c(=O)n2C` [1(3), 1-[(3-cyano-naphthalen-1-yl)methyl]-3-methyl-7-(2-butyn-1-yl)-8-((R)-3-amino-piperidin-1-yl)-xanthine], the IC50 at DPP-IV stood at 6 nM. The same measure, in the same setting: to `CC#CCn1c(N2CCC[C@@H](N)C2)nc2c1c(=O)n(Cc1nc(-c3ccccc3)nc3ccccc13)c(=O)n2C` [1(4), 1-[(2-phenyl-quinazolin-4-yl)methyl]-3-methyl-7-(2-butyn-1-yl)-8-((R)-3-amino-piperidin-1-yl)-xanthine] belongs 9 nM. The same measure, in the same setting: the value for `CC#CCn1c(N2CCC[C@@H](N)C2)nc2c1c(=O)n(Cc1cc(C#N)c3ccccc3n1)c(=O)n2C` [1(6), 1-[(4-cyano-quinolin-2-yl)methyl]-3-methyl-7-(2-butyn-1-yl)-8-((R)-3-amino-piperidin-1-yl)-xanthine] was 2 nM; that for `CC#CCn1c(N2CCC[C@@H](N)C2)nc2c1c(=O)n(CC(=O)c1cccc(OC3CC3)c1)c(=O)n2C` [1(7), 1-[2-(3-cyclopropyloxy-phenyl)-2-oxo-ethyl]-3-methyl-7-(2-butyn-1-yl)-8-((R)-3-amino-piperidin-1-yl)-xanthine] was 5 nM; that for `CC#CCn1c(N2CCC[C@@H](N)C2)nc2c1c(=O)n(Cc1ccc3nc(C)c(C)nc3c1)c(=O)n2C` [1(12), 1-[(2,3-dimethyl-quinoxalin-6-yl)methyl]-3-methyl-7-(2-butyn-1-yl)-8-((R)-3-amino-piperidin-1-yl)-xanthine] was 2 nM.

On to `CC#CCn1c(N2CCC[C@@H](N)C2)nc2c1c(=O)n(CC(=O)c1ccccc1-c1cccnc1)c(=O)n2C` [1(21), 1-{2-oxo-2-[2-(pyridin-3-yl)-phenyl]-ethyl}-3-methyl-7-(2-butyn-1-yl)-8-((R)-3-amino-piperidin-1-yl)-xanthine], for which the IC50 on DPP-IV is 2 nM.

Take `CC#CCn1c(N2CCC[C@@H](N)C2)nc2c1c(=O)n(Cc1cnc3cccnc3c1)c(=O)n2C` [1(26), 1-[([1,5]naphthyridin-3-yl)methyl]-3-methyl-7-(2-butyn-1-yl)-8-((R)-3-amino-piperidin-1-yl)-xanthine]: at DPP-IV, the IC50 stood at 2 nM. As for `CC#CCn1c(N2CCC[C@@H](N)C2)nc2c1c(=O)n(Cc1nccc(-c3ccccc3)n1)c(=O)n2C` [1(31), 1-[(4-phenyl-pyrimidin-2-yl)methyl]-3-methyl-7-(2-butyn-1-yl)-8-((R)-3-amino-piperidin-1-yl)-xanthine], the IC50 at DPP-IV is 3 nM. Turning to `CC#CCn1c(N2CCC[C@@H](N)C2)nc2c1c(=O)n(Cc1ccc3cncnc3c1)c(=O)n2C` [1(38), 1-[(quinazolin-7-yl)methyl]-3-methyl-7-(2-butyn-1-yl)-8-((R)-3-amino-piperidin-1-yl)-xanthine], the IC50 at DPP-IV stood at 1 nM. `CC#CCn1c(N2CCC[C@@H](N)C2)nc2c1c(=O)n(Cc1ccccc1C#N)c(=O)n2C` [1(39), 1-(2-cyano-benzyl)-3-methyl-7-(2-butyn-1-yl)-8-((R)-3-amino-piperidin-1-yl)-xanthine]: the IC50 on DPP-IV stood at 2 nM. With `CC#CCn1c(N2CCC[C@@H](N)C2)nc2c1c(=O)n(Cc1nc3ccccc3cc1C#N)c(=O)n2C` [Example 1(30), 1-[(3-cyano-quinolin-2-yl)methyl]-3-methyl-7-(2-butyn-1-yl)-8-((R)-3-amino-piperidin-1-yl)-xanthine], the IC50 on DPP-IV stood at 2 nM. In addition, in the data set with rats, the toxic side effects entry is recorded as “no toxic side effects could be detected”. In the case of `CC#CCn1c(N2CCC[C@@H](N)C2)nc2c1c(=O)n(Cc1ccccc1)c(=O)n2C` [Example 1(43), 1-benzyl-3-methyl-7-(2-butyn-1-yl)-8-((R)-3-amino-piperidin-1-yl)-xanthine], the melting point lay in the range of 207 to 209 °C.

Turning to `CC#CCn1c(N2CCC[C@@H](N)C2)nc2c1c(=O)n(Cc1nc(C)cc(C)n1)c(=O)n2C` [Example 1(82), 1-[(4,6-dimethyl-pyrimidin-2-yl)methyl]-3-methyl-7-(2-butyn-1-yl)-8-((R)-3-amino-piperidin-1-yl)-xanthine], the melting point is 202 to 204 °C. The molecule `CC#CCn1c(N2CCC[C@@H](N)C2)nc2c1c(=O)n(Cc1cnccc1C#N)c(=O)n2C` [Example 1(102), 1-[(4-cyano-pyridin-3-yl)methyl]-3-methyl-7-(2-butyn-1-yl)-8-((R)-3-amino-piperidin-1-yl)-xanthine] returned a melting point of 166 °C. For the molecule `CC#CCn1c(N2CCCC(N)C2)nc2c1c(=O)n(Cc1nc(Nc3ccccc3)c3ccccc3n1)c(=O)n2C` (stereo not shown) [Example 1, 1-[(4-phenylamino-quinazolin-2-yl)methyl]-3-methyl-7-(2-butyn-1-yl)-8-(3-amino-piperidin-1-yl)-xanthine], the IC50 on DPP-IV was 6 nM.
